Laboratory results: paper PMC5506005, “A novel protein kinase inhibitor IMB-YH-8 with anti-tuberculosis activity” (Scientific Reports, 2017)
≈ marks a conversion by molar mass, not a printed value. Like-named read-outs stand apart in the source and are kept apart here.

Test system: clinical isolates of M. tuberculosis
Assay: microbe, parasite or virus in culture
Type: cell-based
Details: Mycobacterium tuberculosis

Q: `COC(=O)/C=C/C(=O)c1ccc(OC)cc1` [IMB-YH-8] was tested. Which MIC (clinical isolate 3303, resistant to INH, STR) did it give?
A: 0.5 µg/mL (≈ 2.27 µM)

Q: And the MIC (clinical isolate 4201, resistant to RIF)?
A: 0.25 µg/mL (≈ 1.14 µM)

Q: And the MIC (clinical isolate 5112, resistant to INH, RIF, STR, EMB)?
A: 0.25 µg/mL (≈ 1.14 µM)

Q: What about the MIC (clinical isolate 5116, resistant to INH, RIF) of the same compound?
A: 0.25 µg/mL (≈ 1.14 µM)

Q: What about the MIC (clinical isolate 5120, resistant to INH, STR, EMB) of the same compound?
A: 0.5 µg/mL (≈ 2.27 µM)

Q: And the MIC (clinical isolate 6133, resistant to INH, RIF)?
A: 0.25 µg/mL (≈ 1.14 µM)

Q: What about the MIC (clinical isolate 7153, resistant to INH, RIF) of the same compound?
A: 1 µg/mL (≈ 4.54 µM)

Q: And the MIC (clinical isolate 11277, resistant to INH, RIF, STR)?
A: 0.5 µg/mL (≈ 2.27 µM)

Q: And the MIC (clinical isolate 12179, resistant to INH, RIF)?
A: 0.25 µg/mL (≈ 1.14 µM)

Q: What about the MIC (clinical isolate 12251, resistant to INH, RIF) of the same compound?
A: 0.5 µg/mL (≈ 2.27 µM)

Q: And the MIC (clinical isolate 16559, resistant to STR, OFX)?
A: 0.5 µg/mL (≈ 2.27 µM)

Q: And the MIC (clinical isolate 20161, resistant to INH, RIF)?
A: 0.5 µg/mL (≈ 2.27 µM)

Q: And the MIC (clinical isolate 23120, resistant to INH, RIF, STR)?
A: 0.25 µg/mL (≈ 1.14 µM)

Q: And the MIC (clinical isolate 23443, resistant to RIF)?
A: 0.5 µg/mL (≈ 2.27 µM)

Q: What about the MIC (read-out: MICs for drug-resistant isolates) of the same compound?
A: 0.25 to 1 µg/mL (≈ 1.14 to 4.54 µM)
